One assay deals with T1, CCK-1 receptor (Homo sapiens, UniProt P32238).
T1 construct: expressed in transfected cells; host or cells: CHO-K1
T1 sequence (P32238 1-428): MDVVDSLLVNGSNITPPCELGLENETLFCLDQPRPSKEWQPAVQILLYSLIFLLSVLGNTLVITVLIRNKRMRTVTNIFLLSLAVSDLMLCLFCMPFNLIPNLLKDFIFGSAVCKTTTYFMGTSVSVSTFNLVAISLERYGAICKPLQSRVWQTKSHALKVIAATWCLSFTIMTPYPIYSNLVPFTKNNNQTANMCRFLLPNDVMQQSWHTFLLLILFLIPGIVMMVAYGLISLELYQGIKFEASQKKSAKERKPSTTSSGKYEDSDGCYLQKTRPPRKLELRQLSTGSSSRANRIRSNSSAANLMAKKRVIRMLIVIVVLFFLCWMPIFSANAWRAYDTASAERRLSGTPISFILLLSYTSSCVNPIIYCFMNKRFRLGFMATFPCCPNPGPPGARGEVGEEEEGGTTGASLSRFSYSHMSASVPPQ
The experiment in a line: CCK1 binding assay ([125I]-BH-CCK-8S displacement, CHO-K1 membranes). Particulars: membranes of CHO-K1 cells stably transfected with the CCK-1 receptor, 20 pM [125I]-BH-CCK-8S, 0.3 μM PD-134,308 present, 60 min at 21±3° C.; for Ki: read-out: CCK1 pKi (converted). In a few lines: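 Membranes from CHO-K1 cells stably expressing CCK-1 incubated 1 h at 21±3° C with 20 pM [125I]-BH-CCK-8S in HEPES buffer pH 7.2 containing 0.3 μM PD-134,308 to block CCK-2. Bound radioactivity read by gamma counting after filtration. pKi derived via Cheng-Prusoff, with specific binding defined using 2-NAP.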

The target in a further assay is T2, CCK2 receptor (Homo sapiens, UniProt P32239).
T2 construct: analyzed for ZFP expression as well as CCK2R induction upon addition of doxycycline to the culture medium; endogenous in cells
T2 sequence (P32239 1-447): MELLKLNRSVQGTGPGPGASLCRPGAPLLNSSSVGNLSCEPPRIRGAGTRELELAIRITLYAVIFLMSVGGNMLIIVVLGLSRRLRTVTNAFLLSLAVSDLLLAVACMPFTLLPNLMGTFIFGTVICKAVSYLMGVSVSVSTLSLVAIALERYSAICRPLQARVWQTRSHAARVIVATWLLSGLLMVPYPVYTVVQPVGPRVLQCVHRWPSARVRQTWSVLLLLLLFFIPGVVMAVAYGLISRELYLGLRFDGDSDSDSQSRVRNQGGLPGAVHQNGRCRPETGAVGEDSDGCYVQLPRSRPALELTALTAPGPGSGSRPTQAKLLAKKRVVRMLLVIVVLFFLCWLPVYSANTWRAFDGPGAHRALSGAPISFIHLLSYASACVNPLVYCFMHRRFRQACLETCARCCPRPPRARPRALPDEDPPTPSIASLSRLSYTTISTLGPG
In words: CCK2 binding assay ([125I]-BH-CCK-8S displacement, HEKZFP membranes). Particulars: membranes of doxycycline-induced HEKZFP cells; 20 pM [125I]-BH-CCK-8S; 60 min at 21±3° C.; read-out: CCK2 pKi (converted).

Data on 22 molecules can be found in patent publication US7855292B2, “Sulfonamide compounds” (Janssen Pharmaceutica NV, priority 2004, dated 2010).

On to `CC(CNC(=O)c1ccc(I)cc1NS(=O)(=O)c1c(F)cccc1F)c1ccc(Cl)cc1Cl` (centres unmarked) [Example 47, N-[2-(2,4-Dichloro-phenyl)-propyl]-2-(2,6-difluoro-benzenesulfonylamino)-4-iodo-benzamide], for which the Ki at CCK-1 receptor was 0.1 µM; on CCK2 receptor, 5.01 µM.

With `O=C(NC(C(=O)O)C(O)c1ccc(Cl)c(Cl)c1)c1ccc(Cl)cc1NS(=O)(=O)c1cccc2nsnc12` (mixture of isomers) [Example 19, 2-[2-(Benzo[1,2,5]thiadiazole-4-sulfonylamino)-4-chloro-benzoylamino]-3-(3,4-dichloro-phenyl)-3-hydroxy-propionic acid], the Ki was 0.2 µM at CCK-1 receptor and 0.251 µM at CCK2 receptor.

Turning to `O=C(N[C@H](Cc1ccc(Cl)c(Cl)c1)C(=O)O)c1ccc(I)cc1NS(=O)(=O)c1cccc2nccnc12` [Example 60, (R)-3-(3,4-Dichloro-phenyl)-2-[4-iodo-2-(quinoxaline-5-sulfonylamino)-benzoylamino]-propionic acid], the results for the Ki on CCK-1 receptor and on CCK2 receptor were 0.0794 µM and 0.398 µM, respectively.

Take `O=C(N[C@H](Cc1ccc(Cl)c(Cl)c1)C(=O)O)c1ccc(Cl)cc1NS(=O)(=O)c1c(F)cccc1F` [Example 120, (R)-2-[4-Chloro-2-(2,6-difluoro-benzenesulfonylamino)-benzoylamino]-3-(3,4-dichloro-phenyl)-propionic acid]: the Ki at CCK-1 receptor was 0.0794 µM; at CCK2 receptor, 1 µM.

Consider `CC(Cc1ccc(Cl)cc1)NC(=O)c1ccc(Br)cc1NS(=O)(=O)c1cccc2nsnc12` (racemic) [Example 53, (±)-2-(Benzo[1,2,5]thiadiazole-4-sulfonylamino)-4-bromo-N-[2-(4-chloro-phenyl)-1-methyl-ethyl]-benzamide], for which the Ki on CCK-1 receptor is 0.126 µM; on CCK2 receptor, 2.51 µM.

On to `CC(C)(c1ccc(Cl)cc1)[C@H](NC(=O)c1ccc(Cl)cc1NS(=O)(=O)c1cccc2nsnc12)C(=O)O` [Example 107, (S)-2-[2-(Benzo[1,2,5]thiadiazole-4-sulfonylamino)-4-chloro-benzoylamino]-3-(4-chloro-phenyl)-3-methyl-butyric acid], for which, at CCK-1 receptor, the “CCK1 pKi” value turned out to be 5.4. Also, the Ki at CCK2 receptor was 0.794 µM.

Consider `O=C(N[C@@H](Cc1ccc(Cl)c(Br)c1)C(=O)O)c1cc(Cl)c(Cl)cc1NS(=O)(=O)c1cccc2nsnc12` [Example 147, (S)-2-[2-(Benzo[1,2,5]thiadiazole-4-sulfonylamino)-4,5-dichloro-benzoylamino]-3-(3-bromo-4-chloro-phenyl)-propionic acid], for which the Ki was 0.158 µM at CCK-1 receptor and 0.0398 µM on CCK2 receptor.

`O=C(N[C@@H](C(=O)O)[C@@H](O)c1ccc(Cl)c(Cl)c1)c1ccc(Cl)cc1NS(=O)(=O)c1cccc2nsnc12` (relative stereo) [Example 121, anti-2-[2-(Benzo[1,2,5]thiadiazole-4-sulfonylamino)-4-chloro-benzoylamino]-3-(3,4-dichloro-phenyl)-3-hydroxy-propionic acid]: the Ki is 0.126 µM at CCK-1 receptor and 0.501 µM on CCK2 receptor.

With `O=C(N[C@@H](Cc1ccc(Cl)c(Cl)c1)C(=O)O)c1cc(Cl)c(Cl)cc1NS(=O)(=O)c1cccc2nsnc12` [Example 141, (S)-2-[2-(Benzo[1,2,5]thiadiazole-4-sulfonylamino)-4,5-dichloro-benzoylamino]-3-(3,4-dichloro-phenyl)-propionic acid], the Ki was 0.1 µM on CCK-1 receptor and 0.0631 µM at CCK2 receptor.

`CC(CNC(=O)c1ccc(Cl)cc1NS(=O)(=O)c1cccc2nsnc12)c1ccc(Cl)c(Cl)c1` (racemic) [Example 57, (±)-2-(Benzo[1,2,5]thiadiazole-4-sulfonylamino)-4-chloro-N-[2-(3,4-dichloro-phenyl)-propyl]-benzamide]: the Ki at CCK-1 receptor was 0.0126 µM; at CCK2 receptor it was 0.501 µM.

Consider `O=C(N[C@@H](Cc1ccc(Cl)cc1)C(=O)O)c1ccc(I)cc1NS(=O)(=O)c1cccc2nccnc12` [Example 90, (S)-3-(4-Chloro-phenyl)-2-[4-iodo-2-(quinoxaline-5-sulfonylamino)-benzoylamino]-propionic acid], for which the values for the Ki on CCK-1 receptor and at CCK2 receptor were 1.26 µM and 0.0316 µM, respectively.

On to `O=C(N[C@@H](Cc1ccc(Cl)c(Br)c1)C(=O)O)c1ccc(Cl)cc1NS(=O)(=O)c1cccc2nccnc12` [Example 146, (S)-3-(3-Bromo-4-chloro-phenyl)-2-[4-chloro-2-(quinoxaline-5-sulfonylamino)-benzoylamino]-propionic acid], for which the values for the Ki at CCK-1 receptor and at CCK2 receptor were 0.251 µM and 0.0251 µM, respectively.

As to `O=C(N[C@@H](Cc1ccc(Cl)cc1)C(=O)O)c1ccc(I)cc1NS(=O)(=O)c1cccc2nsnc12` [Example 33, 2-[2-(Benzo[1,2,5]thiadiazole-4-sulfonylamino)-4-iodo-benzoylamino]-3-(4-chloro-phenyl)-propionic acid], the Ki on CCK-1 receptor is 0.158 µM; at CCK2 receptor, 0.0398 µM.

On to `O=C(O)/C(=C/c1ccc(Cl)c(Cl)c1)NC(=O)c1cc(Cl)c(Cl)cc1NS(=O)(=O)c1cccc2nsnc12` [Example 144, (Z)-2-[2-(Benzo[1,2,5]thiadiazole-4-sulfonylamino)-4,5-dichloro-benzoylamino]-3-(3,4-dichloro-phenyl)-acrylic acid], for which the Ki on CCK-1 receptor is 0.501 µM; at CCK2 receptor it was 0.0501 µM.

Turning to `O=C(N[C@@H](Cc1ccc(Cl)c(Cl)c1)C(=O)O)c1ccc(I)cc1NS(=O)(=O)c1c(F)cccc1F` [Example 32, 3-(3,4-Dichloro-phenyl)-2-[2-(2,6-difluoro-benzenesulfonylamino)-4-iodo-benzoylamino]-propionic acid], the Ki on CCK-1 receptor is 0.398 µM; on CCK2 receptor, 0.1 µM.

For the molecule `O=C(N[C@@H](Cc1ccccc1)C(=O)O)c1ccc(C(F)(F)F)cc1NS(=O)(=O)c1cccc2nsnc12` [Example 26, 2-[2-(Benzo[1,2,5]thiadiazole-4-sulfonylamino)-4-trifluoromethyl-benzoylamino]-3-phenyl-propionic acid], the Ki is 2.51 µM at CCK-1 receptor and 0.0398 µM on CCK2 receptor.

As for `Cc1ccc(CC(NC(=O)c2ccc(I)cc2NS(=O)(=O)c2cccc3nccnc23)C(=O)O)cc1` (stereo in doubt) [Example 79, (S)-2-[4-Iodo-2-(quinoxaline-5-sulfonylamino)-benzoylamino]-3-p-tolyl-propionic acid], the results for the Ki at CCK-1 receptor and on CCK2 receptor were 0.0631 µM and 1.26 µM, respectively.

For the molecule `O=C(N[C@@H](Cc1cccc(Cl)c1)C(=O)O)c1ccc(Cl)cc1NS(=O)(=O)c1cccc2nccnc12` [Example 78, (S)-3-(3-Chloro-phenyl)-2-[4-chloro-2-(quinoxaline-5-sulfonylamino)-benzoylamino]-propionic acid], the figures for the Ki at CCK-1 receptor and at CCK2 receptor were 3.98 µM and 0.0316 µM, respectively.

With `CC(CNC(=O)c1ccc(Br)cc1NS(=O)(=O)c1c(F)cccc1F)c1ccc(Cl)c(Cl)c1` (centres unmarked) [Example 30, 4-Bromo-N-[2-(3,4-dichloro-phenyl)-propyl]-2-(2,6-difluoro-benzenesulfonylamino)-benzamide], the Ki is 0.0631 µM at CCK-1 receptor and 2.51 µM at CCK2 receptor.

Consider `O=C(N[C@@H](Cc1ccccc1)C(=O)O)c1cc(Cl)c(Cl)cc1NS(=O)(=O)c1cccc2nccnc12` [Example 29, 2-[4,5-Dichloro-2-(quinoxaline-5-sulfonylamino)-benzoylamino]-3-phenyl-propionic acid], for which the Ki at CCK-1 receptor was 6.31 µM; at CCK2 receptor, 0.0794 µM.

In the case of `CC(CNC(=O)c1ccc(Cl)cc1NS(=O)(=O)c1cccc2nccnc12)c1ccc(Cl)c(Cl)c1` (racemic) [Example 59, (±)-4-Chloro-N-[2-(3,4-dichloro-phenyl)-propyl]-2-(quinoxaline-5-sulfonylamino)-benzamide], the figures for the Ki at CCK-1 receptor and at CCK2 receptor were 0.0794 µM and 0.794 µM, respectively.

Consider `CC(CNC(=O)c1ccc(Cl)cc1NS(=O)(=O)c1c(F)cccc1F)c1ccc(Cl)cc1Cl` (centres unmarked) [Example 43, 4-Chloro-N-[2-(2,4-dichloro-phenyl)-propyl]-2-(2,6-difluoro-benzenesulfonylamino)-benzamide], for which the Ki at CCK-1 receptor was 0.126 µM; at CCK2 receptor, 0.251 µM.
